Experimental data as given in PubChem BioAssay AID1963441 (Molecular Pharmacology Branch, DTP, NCI, 2024).

Test system: NCI-H1876 complex spheroid growth, % test/control
Experiment: Anticancer human tumor NCI-H1876 cell line growth inhibition [Asc];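 further: compound exposure lasted 7 days starting three days after seeding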;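 on viability, T/C: 100% = DMSO vehicle control wells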
Conditions: for IC50: curve of first compound; for viability, T/C: stronger effect = lower value
In short: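 Complex solid-tumor spheroids incorporating human endothelial and mesenchymal stem cells received single agents or combinations over half-log dilution ranges anchored to clinical Cmax.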

CCN1C(C(=O)NC23CCC(C(=O)O)(CC2)CC3)C(c2cccc(Cl)c2F)C2(C(=O)Nc3cc(Cl)ccc32)C12CCCCC2 (centres undefined) + Cc1c(S(C)(=O)=O)c(-c2cc(F)cc(N3CCN(c4ccc(NS(=O)(=O)c5ccc(NC(CCN6CCC(C(=O)OCCCP(=O)(O)O)CC6)CSc6ccccc6)c(S(=O)(=O)C(F)(F)F)c5)cc4)CC3)c2)c(-c2ccc(Cl)cc2)n1C(C)C
IC50 (second compound 0.0316 µM): > 3000 nM
IC50 (second compound 0.1 µM): > 3000 nM
IC50 (second compound 0.316 µM): > 3000 nM
IC50 (second compound 1 µM): > 3000 nM
IC50 (second compound 3.16 µM): > 3000 nM
IC50 (second compound 10 µM): 2740 nM
viability, T/C (second compound 0.0316 µM, first compound 0.00949 µM): 97.3%
viability, T/C (second compound 0.0316 µM, first compound 0.03 µM): 85.5%
viability, T/C (second compound 0.0316 µM, first compound 0.0949 µM): 98.5%
viability, T/C (second compound 0.0316 µM, first compound 0.3 µM): 107%
viability, T/C (second compound 0.0316 µM, first compound 0.949 µM): 125%
viability, T/C (second compound 0.0316 µM, first compound 3 µM): 106%
viability, T/C (second compound 0.1 µM, first compound 0.00949 µM): 95%
viability, T/C (second compound 0.1 µM, first compound 0.03 µM): 105%
viability, T/C (second compound 0.1 µM, first compound 0.0949 µM): 99.5%
viability, T/C (second compound 0.1 µM, first compound 0.3 µM): 105%
viability, T/C (second compound 0.1 µM, first compound 0.949 µM): 124%
viability, T/C (second compound 0.1 µM, first compound 3 µM): 98.2%
viability, T/C (second compound 0.316 µM, first compound 0.00949 µM): 99%
viability, T/C (second compound 0.316 µM, first compound 0.03 µM): 96.4%
viability, T/C (second compound 0.316 µM, first compound 0.0949 µM): 107%
viability, T/C (second compound 0.316 µM, first compound 0.3 µM): 96.1%
viability, T/C (second compound 0.316 µM, first compound 0.949 µM): 116%
viability, T/C (second compound 0.316 µM, first compound 3 µM): 81.2%
viability, T/C (second compound 1 µM, first compound 0.00949 µM): 95.2%
viability, T/C (second compound 1 µM, first compound 0.03 µM): 91.7%
viability, T/C (second compound 1 µM, first compound 0.0949 µM): 104%
viability, T/C (second compound 1 µM, first compound 0.3 µM): 108%
viability, T/C (second compound 1 µM, first compound 0.949 µM): 121%
viability, T/C (second compound 1 µM, first compound 3 µM): 60.4%
viability, T/C (second compound 3.16 µM, first compound 0.00949 µM): 104%
viability, T/C (second compound 3.16 µM, first compound 0.03 µM): 107%
viability, T/C (second compound 3.16 µM, first compound 0.0949 µM): 96.6%
viability, T/C (second compound 3.16 µM, first compound 0.3 µM): 107%
viability, T/C (second compound 3.16 µM, first compound 0.949 µM): 110%
viability, T/C (second compound 3.16 µM, first compound 3 µM): 50.7%
viability, T/C (second compound 10 µM, first compound 0.00949 µM): 103%
viability, T/C (second compound 10 µM, first compound 0.03 µM): 99.7%
viability, T/C (second compound 10 µM, first compound 0.0949 µM): 94%
viability, T/C (second compound 10 µM, first compound 0.3 µM): 107%
viability, T/C (second compound 10 µM, first compound 0.949 µM): 115%
viability, T/C (second compound 10 µM, first compound 3 µM): 45.3%

O=C(c1ccc(F)c(F)c1Nc1ccc(I)cc1F)N1CC(O)([C@@H]2CCCCN2)C1 + Cc1c(S(C)(=O)=O)c(-c2cc(F)cc(N3CCN(c4ccc(NS(=O)(=O)c5ccc(NC(CCN6CCC(C(=O)OCCCP(=O)(O)O)CC6)CSc6ccccc6)c(S(=O)(=O)C(F)(F)F)c5)cc4)CC3)c2)c(-c2ccc(Cl)cc2)n1C(C)C
IC50 (second compound 0.0316 µM): > 1000 nM
IC50 (second compound 0.1 µM): > 1000 nM
IC50 (second compound 0.316 µM): > 1000 nM
IC50 (second compound 1 µM): > 1000 nM
IC50 (second compound 3.16 µM): > 1000 nM
IC50 (second compound 10 µM): > 1000 nM
viability, T/C (second compound 0.0316 µM, first compound 0.00316 µM): 102%
viability, T/C (second compound 0.0316 µM, first compound 0.01 µM): 98.9%
viability, T/C (second compound 0.0316 µM, first compound 0.0316 µM): 108%
viability, T/C (second compound 0.0316 µM, first compound 0.1 µM): 92.3%
viability, T/C (second compound 0.0316 µM, first compound 0.316 µM): 85.3%
viability, T/C (second compound 0.0316 µM, first compound 1 µM): 71.7%
viability, T/C (second compound 0.1 µM, first compound 0.00316 µM): 95.4%
viability, T/C (second compound 0.1 µM, first compound 0.01 µM): 97.5%
viability, T/C (second compound 0.1 µM, first compound 0.0316 µM): 94.6%
viability, T/C (second compound 0.1 µM, first compound 0.1 µM): 97.6%
viability, T/C (second compound 0.1 µM, first compound 0.316 µM): 86.9%
viability, T/C (second compound 0.1 µM, first compound 1 µM): 81%
viability, T/C (second compound 0.316 µM, first compound 0.00316 µM): 96.5%
viability, T/C (second compound 0.316 µM, first compound 0.01 µM): 102%
viability, T/C (second compound 0.316 µM, first compound 0.0316 µM): 89.5%
viability, T/C (second compound 0.316 µM, first compound 0.1 µM): 102%
viability, T/C (second compound 0.316 µM, first compound 0.316 µM): 84.2%
viability, T/C (second compound 0.316 µM, first compound 1 µM): 78.4%
viability, T/C (second compound 1 µM, first compound 0.00316 µM): 101%
viability, T/C (second compound 1 µM, first compound 0.01 µM): 102%
viability, T/C (second compound 1 µM, first compound 0.0316 µM): 93.9%
viability, T/C (second compound 1 µM, first compound 0.1 µM): 92.1%
viability, T/C (second compound 1 µM, first compound 0.316 µM): 92%
viability, T/C (second compound 1 µM, first compound 1 µM): 77.1%
viability, T/C (second compound 3.16 µM, first compound 0.00316 µM): 109%
viability, T/C (second compound 3.16 µM, first compound 0.01 µM): 98.6%
viability, T/C (second compound 3.16 µM, first compound 0.0316 µM): 91%
viability, T/C (second compound 3.16 µM, first compound 0.1 µM): 85.8%
viability, T/C (second compound 3.16 µM, first compound 0.316 µM): 94.2%
viability, T/C (second compound 3.16 µM, first compound 1 µM): 74.9%
viability, T/C (second compound 10 µM, first compound 0.00316 µM): 103%
viability, T/C (second compound 10 µM, first compound 0.01 µM): 92.2%
viability, T/C (second compound 10 µM, first compound 0.0316 µM): 92.5%
viability, T/C (second compound 10 µM, first compound 0.1 µM): 102%
viability, T/C (second compound 10 µM, first compound 0.316 µM): 93.5%
viability, T/C (second compound 10 µM, first compound 1 µM): 79.5%
